Reference: ChEMBL document CHEMBL1201862, “PubChem BioAssay data set” (2004)
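Compound exposure: 48 hours, 5 concentrations, 96-well plates. GI50: concentration for 50% inhibition of growth.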 Active and inactive are the calls of the source. Rule as the data show it: active = GI50 up to about 1.1 µM and inactive = higher.

Experiments:
Assay in all cases: NCI-60 cell line screen, 48 h
SK-MEL-28 = tested on: SK-MEL-28
UACC-257 = tested on: UACC-257
SK-MEL-5 = tested on: SK-MEL-5
OVCAR-3 = tested on: OVCAR-3
SN12C = tested on: SN12C
COLO 205 = tested on: COLO 205
Malme-3M = tested on: Malme-3M
OVCAR-8 = tested on: OVCAR-8
786-0 = tested on: 786-0
K562 = tested on: K562
NCI-H226 = tested on: NCI-H226
DMS-273 = tested on: DMS-273
NCI-H522 = tested on: NCI-H522
M19-MEL = tested on: M19-MEL
HCC 2998 = tested on: HCC 2998
NCI-H23 = tested on: NCI-H23
EKVX = tested on: EKVX
LOX IMVI = tested on: LOX IMVI
SF-268 = tested on: SF-268
ACHN = tested on: ACHN
HL-60 = tested on: HL-60
OVCAR-4 = tested on: OVCAR-4
CAKI-1 = tested on: CAKI-1
KM-20L2 = tested on: KM-20L2
LXFL 529 = tested on: LXFL 529
SW-620 = tested on: SW-620
SNB-19 = tested on: SNB-19
HOP-92 = tested on: HOP-92
SF-539 = tested on: SF-539
OVCAR-5 = tested on: OVCAR-5
IGROV-1 = tested on: IGROV-1
TK-10 = tested on: TK-10
RXF 393 = tested on: RXF 393
DLD-1 = tested on: DLD-1
SNB-78 = tested on: SNB-78
HT-29 = tested on: HT-29
SK-OV-3 = tested on: SK-OV-3
UO-31 = tested on: UO-31
HCT-15 = tested on: HCT-15
HOP-62 = tested on: HOP-62
HOP-18 = tested on: HOP-18
M14 = tested on: M14
NCI-H460 = tested on: NCI-H460
SNB-75 = tested on: SNB-75
A498 = tested on: A498
UACC-62 = tested on: UACC-62
SK-MEL-2 = tested on: SK-MEL-2
KM12 = tested on: KM12
MOLT-4 = tested on: MOLT-4
A549 = tested on: A549
CCRF-CEM = tested on: CCRF-CEM
HCT-116 = tested on: HCT-116
U-251 = tested on: U-251
DMS-114 = tested on: DMS-114
SF-295 = tested on: SF-295

Cc1nc2ccccc2c(=O)n1-c1ccccc1F
GI50 (SK-MEL-28): > 100 µM (inactive) | GI50 (UACC-257): > 100 µM (inactive) | GI50 (SK-MEL-5): > 100 µM (inactive) | GI50 (OVCAR-3): > 100 µM (inactive) | GI50 (SN12C): > 100 µM (inactive) | GI50 (COLO 205): > 100 µM (inactive) | GI50 (Malme-3M): > 100 µM (inactive) | GI50 (OVCAR-8): > 100 µM (inactive) | GI50 (786-0): > 100 µM (inactive) | GI50 (K562): > 100 µM (inactive) | GI50 (NCI-H226): > 100 µM (inactive) | GI50 (DMS-273): > 100 µM (inactive) | GI50 (NCI-H522): > 100 µM (inactive) | GI50 (M19-MEL): > 100 µM (inactive) | GI50 (HCC 2998): > 100 µM (inactive) | GI50 (NCI-H23): > 100 µM (inactive) | GI50 (EKVX): > 100 µM (inactive) | GI50 (LOX IMVI): > 100 µM (inactive) | GI50 (SF-268): > 100 µM (inactive) | GI50 (ACHN): > 100 µM (inactive) | GI50 (HL-60): > 100 µM (inactive) | GI50 (OVCAR-4): > 100 µM (inactive) | GI50 (CAKI-1): > 100 µM (inactive) | GI50 (KM-20L2): > 100 µM (inactive) | GI50 (LXFL 529): > 100 µM (inactive) | GI50 (SW-620): > 100 µM (inactive) | GI50 (SNB-19): > 100 µM (inactive) | GI50 (HOP-92): > 100 µM (inactive) | GI50 (SF-539): > 100 µM (inactive) | GI50 (OVCAR-5): > 100 µM (inactive) | GI50 (IGROV-1): > 100 µM (inactive) | GI50 (TK-10): > 100 µM (inactive) | GI50 (RXF 393): > 100 µM (inactive) | GI50 (DLD-1): > 100 µM (inactive) | GI50 (SNB-78): > 100 µM (inactive) | GI50 (HT-29): > 100 µM (inactive) | GI50 (SK-OV-3): > 100 µM (inactive) | GI50 (UO-31): 74.3 µM (inactive) | GI50 (HCT-15): > 100 µM | GI50 (HOP-62): > 100 µM (inactive) | GI50 (HOP-18): > 100 µM (inactive) | GI50 (M14): > 100 µM (inactive) | GI50 (NCI-H460): > 100 µM (inactive) | GI50 (SNB-75): 30.2 µM (inactive) | GI50 (A498): > 100 µM (inactive) | GI50 (UACC-62): > 100 µM (inactive) | GI50 (SK-MEL-2): > 100 µM (inactive) | GI50 (KM12): > 100 µM (inactive) | GI50 (MOLT-4): > 100 µM (inactive) | GI50 (A549): > 100 µM (inactive) | GI50 (CCRF-CEM): > 100 µM (inactive) | GI50 (HCT-116): > 100 µM (inactive) | GI50 (U-251): > 100 µM (inactive) | GI50 (DMS-114): > 100 µM (inactive) | GI50 (SF-295): > 100 µM (inactive)
